These results are taken from patent US9365559B2, “Crystal form of Dabrafenib and preparation method of use thereof” (Hangzhou Pushai Pharmaceutical Technology Co., LTD., priority 2013, dated 2016).

“Also recorded” adds a separate entry of the source.

Format in all cases: physicochemical
The nature of series [1]: Crystal form stability on stirring in or exposure to water, aqueous ethanol or other solvent. Conditions: for crystal form stability when stirred: stirred in water or aqueous ethanol solution at room temperature or high temperature (40° C.); for crystal form stability in water: in water or other water containing system(s).
Series [2] in a line: Thermogravimetric analysis (TGA), thermal stability. The method, then:
The thermogravimetric analysis (TGA) data are collected by TA Instruments Q500 TGA; the instrument control software is Thermal Advantage and the analysis software is Universal Analysis. Generally, take 5˜15 mg sample and place it in a platinum pan, adopt the segmental high-resolution testing mode, and under the protection of 50 mL/min dry N2, heat the sample from room temperature to 300° C. at the heating rate of 10° C./min, the weight changes of the sample during the course are recorded by TA software simultaneously.

The nature of series [3]: Particle size distribution (PSD), laser diffraction. From the text:
The particle size distribution (PSD) plot is obtained using Microtrac S3500 laser diffraction particle size analyzer. The method parameters are as follows: flow velocity of the dispersant is 50%; the dispersant is water (added with 2% tween-80); the sample refractivity is 1.58; the laser source wavelength is 780 nm; and the integral mode is volume.
(§1) The morphology comparison is obtained by PLM testing of particle shape and PSD testing of particle size.

Series [4] can be described thus: Dynamic vapor sorption (DVS) hygroscopicity. Conditions: from DVS, 20~80% RH. As for the experimental part: The dynamic vapor sorption analysis (DVS) data are collected by TA Instruments Q5000 TGA; the instrument control software is Thermal Advantage and the analysis software is Universal Analysis. Generally, take 1˜10 mg of the sample and place it in a platinum pan, and the weight changes of the sample are recorded during the course of the relative humidity changing from 0% to 80% and then to 0%. According to the specifics of the samples, different adsorption and desorption steps may be used.
The hygroscopicity is obtained by DVS testing of the weight changes between 20%-80% RH.

Series [5] can be described thus: Competition test (suspension of equal amounts stirred overnight, XRPD). The conditions noted are these: for Competition test, comparison of stability (position in the rank order): in pure water, room temperature, stirred overnight. The source says:
The competition test is: take equal amount of the samples, and respectively place them in isopropanol or in a mixture of water (pure water) and ethanol (wherein the volume percentage of ethanol is 0%, 20%, 50%, 80% and 100%, respectively) to form a suspension, stir it overnight at room temperature, then compare their XRPDs.

The nature of series [6]: Flowability observed during the experiments.
The nature of series [7]: Polarized light microscopy (PLM) morphology.
Text: Polarized Light Microscope (PLM) plots are collected from XP-500E polarized light microscope (by Shanghai Changfang Optical Instrument Co., Ltd). Place a small amount of powder sample on a slide glass, drip some mineral oil to disperse the powder sample, place the cover slip, then place the sample on the loading table of XP-500E polarized light microscope, choose the appropriate magnitude to observe the morphology of the sample and take pictures thereof.
as §1

A short description of series [8]: Storage stability test (XRPD before and after storing). From the text:
The storage stability test is: storing the sample under constant conditions (i.e. constant humidity or constant temperature) for a certain time, and then comparing the XRPDs before and after storing.

Series [9] in a line: Crystal form stability in oral suspension (XRPD). The conditions noted are these: oral suspension; XRPD. The method, then:
The preparation of the oral suspension containing the crystal forms of the present invention.
API (selected from Crystal Form VI of Dabrafenib of the present invention): 2 g;
Blend API (selected from Crystal Form VI of Dabrafenib of the present invention), cocklebur gum, sodium dihydrogen citrate, methylparaben, syrupus simplex and orange flavor, add water to 1,000 mL and stir the mixture uniformly. After that, divide the solution into 100 bottles with 20 mg API in each bottle.

A short description of series [10]: Crystal form stability during wet granulation tablet preparation (XRPD). Conditions: for crystal form of API after physical blending with excipients: XRPD of Sample 1 vs Sample 3, lactose, microcrystalline cellulose, polyethylene glycol 6000; for crystal form of API in the wet granulation process: XRPD of Sample 2 vs Sample 1, 50% aqueous ethanol solution. The source says: The Known Crystal Form 1, the Known Crystal Form 2 and Crystal Form VI of the present invention are examined for their stability during the formulation preparation of the wet granulation process.
The preparation process of the tablet is a parallel experiment.
(1) Blend API (selected from the Known Crystal Form 1, the Known Crystal Form 2 or Crystal Form VI of the present invention), lactose (monohydrate) and microcrystalline cellulose uniformly.
(2) Make the above mixture into soft materials by using an appropriate amount of 50% aqueous ethanol solution, screen to produce the wet granules and then dry the wet granules.
(3) Granulate the dried sample, blend with polyethylene glycol 6000 uniformly and then compress into tablets.
Respectively, take XRPD tests on the following samples obtained in the formulation preparing process of the Known Crystal Form 1, the Known Crystal Form 2 and Crystal Form VI of the present invention: (Sample 1) the sample obtained by physically blending API, lactose, microcrystalline cellulose with polyethylene glycol 6000 according to the preparation formula; (Sample 2) the sample obtained by granulating with API, lactose, microcrystalline cellulose and polyethylene glycol 6000 according to the “wet granulation” process (excluding the sample obtained after the Step (3)); (Sample 3) excluding API, the sample obtained by physically blending lactose, microcrystalline cellulose with polyethylene glycol 6000 according to the preparation formula.

Series [11] can be described thus: Crystal form stability in capsules prepared by wet granulation (XRPD). The conditions noted are these: capsules prepared by wet granulation process; XRPD. From the text: The preparation of the capsules containing the crystal forms of the present invention.
3) Blend API (selected from the Known Crystal Form 1, the Known Crystal Form 2 and Crystal Form VI of the present invention), microcrystalline cellulose (avicel) and sodium carboxymethyl starch (SSG) uniformly.
4) Make the above mixture into soft materials by using an appropriate amount of 50% aqueous ethanol solution, then screen to produce the wet granules.
5) Dry the wet granules, grind and disperse uniformly and then transfer them into the capsules.

[12] abbreviates: dispersant water with 2% tween-80.

For `CC(C)(C)c1nc(-c2cccc(NS(=O)(=O)c3c(F)cccc3F)c2F)c(-c2ccnc(N)n2)s1` [Crystal Form VII, N-[3-[5-(2-aminopyrimidin-4-yl)-2-(tert-butyl)thiazo-4-lyl]-2-fluorophenyl]-2,6-difluorobenzenesulfonamide], the “crystal form stability when stirred” value in series [1] is recorded as “convert to Crystal Form VI of the present invention”. In series [2] (TGA, 10° C./min, dry N2), this compound returned a decomposition temperature of 270 °C. For the same compound, in series [2] (conclusion from DSC/TGA test results), the “stability at high temperature (in words)” value is given as “very stable at high temperature”. Moreover, the “particle size compared with known crystal forms” value in series [3] was “larger particle size than those of the Known Crystal Form 1 and the Known Crystal Form 2; also recorded: larger than that of the Known Crystal Form 1 and the Known Crystal Form 2”. In [3] (setting [12]), this compound showed a D10 of 91 μm and a D50 of 207 μm. Further, the “hygroscopicity (in words)” value in series [4] is listed as “low hygroscopicity; also recorded: lower than that of the Known Crystal Form 1”. Also, the “Competition test, comparison of stability (position in the rank order)” value (shortened to “Competition test … (position in the rank order)”) in series [5] is “more stable than the Known Crystal Form 1; also recorded: >The Known Crystal Form 2”. Moreover, the flowability result in [6] was “good and good flowability”. The “Morphology (particle shape)” value in series [7] is recorded as “rod-shaped crystals; also recorded: good morphology; also recorded: rod-shaped particles in large size; also recorded: Rod shape”. Besides, the “Storage stability (crystal form by XRPD)” value in [8] (stored 3 months in desiccator at room temperature, room temperature-97% RH, -75% RH, -44% RH or oven of 40° C.) is reported as “its crystal form does not change”. For the same compound, in [8] (stored for a long time in desiccator at room temperature, room temperature-97% RH, -75% RH, -44% RH or oven of 40° C.), the “Storage stability (crystal form)” value is given as “stable when stored for a long time”.

For the compound `CC(C)(C)c1nc(-c2cccc(NS(=O)(=O)c3c(F)cccc3F)c2F)c(-c2ccnc(N)n2)s1` [Known Crystal Form 1, N-{3-[5-(2-amino-4-pyrimidinyl)-2-(1,1-dimethylethyl)-1,3-thiazol-4-yl]-2-fluorophenyl}-2,6-difluorobenzenesulfonamide, reference compound], in [1], the “crystal form stability in water” value is recorded as “readily converts to other form(s)” and the “crystal form stability when stirred” value is “convert to Crystal Form VI of the present invention; also recorded: unstable”. Moreover, the “crystal form in oral suspension” value in [9] was “unstable and has converted to Crystal Form VI of the present invention”. In addition, in [10], the “crystal form of API after physical blending with excipients” value is on record as “keeps unchanged”, the “crystal form of API in the wet granulation process” value was “partially or totally converted to Crystal Form VI of the present invention” and the “crystal form stability in the wet granulation process or in the suspension” value is “unstable”. Moreover, the “crystal form in capsules” value in series [11] was “unstable and has converted to Crystal Form VI of the present invention”. For the same compound, the “hygroscopicity (in words)” value in series [4] was “some hygroscopicity”. Moreover, the “Competition test, comparison of stability” value in [5] (in isopropanol or ethanol) is “Form 1 >The other three crystal forms”. In [5], the “Competition test … (position in the rank order)” value is “>Crystal Form VII of the present”. Further, the “Morphology (particle shape)” value in series [7] was “small block-shaped crystals”.

In the case of `CC(C)(C)c1nc(-c2cccc(NS(=O)(=O)c3c(F)cccc3F)c2F)c(-c2ccnc(N)n2)s1` [Known Crystal Form 2, N-[3-[5-(2-aminopyrimidin-4-yl)-2-(tert-butyl)thiazo-4-lyl]-2-fluorophenyl]-2,6-difluorobenzenesulfonamide, reference compound], in series [1], the “crystal form stability in water” value was “would convert to other form(s)” and the “crystal form stability when stirred” value is listed as “convert to Crystal Form VI of the present invention; also recorded: unstable”. Moreover, the “crystal form conversion in dichloromethane” value in [1] (stirring in dichloromethane followed by filtering and drying) is “can convert to the Known Crystal Form 1”. The “crystal form in oral suspension” value in [9] is “unstable and has converted to Crystal Form VI of the present invention”. Moreover, in series [10], the “crystal form of API after physical blending with excipients” value is “keeps unchanged”, the “crystal form of API in the wet granulation process” value is reported as “partially or totally converted to Crystal Form VI of the present invention” and the “crystal form stability in the wet granulation process or in the suspension” value is listed as “unstable”. In addition, the “crystal form in capsules” value in [11] was “unstable and has converted to Crystal Form VI of the present invention”. Moreover, in series [5], the “Competition test … (position in the rank order)” value is “invention >The Known Crystal Form 2”. Moreover, the “Morphology (particle shape)” value in [7] is given as “small block-shaped crystals”.

As for `CC(C)(C)c1nc(-c2cccc(NS(=O)(=O)c3c(F)cccc3F)c2F)c(-c2ccnc(N)n2)s1` [Known Crystal Form 3, N-[3-[5-(2-aminopyrimidin-4-yl)-2-(tert-butyl)thiazo-4-lyl]-2-fluorophenyl]-2,6-difluorobenzenesulfonamide, reference compound], the “crystal form stability in water” value in [1] is “may convert to other form(s)”. In addition, the “crystal form stability on standing” value in [8] (placed at room temperature) is “extremely unstable; also recorded: can convert to the Known Crystal Form 1; also recorded: converts to the Known Crystal Form 1”.
